Reference: patent publication US20200361908A1, “CRYSTALS OF ANILINE PYRIMIDINE COMPOUND SERVING AS EGFR INHIBITOR” (CHIA TAI TIANQING PHARMACEUTICAL GROUP CO., LTD., priority 2016, published 2020)

Key:
[1] = Stability test of crystal A at room temperature, kept away from light; format: physicochemical
Protocol: (§1) The stability of the crystal according to the present application may be detected by placing the crystal under a condition with a high temperature, a high humidity, or a lighting condition. The high temperature condition may be 40° C. to 60° C., the high humidity condition may be a relative humidity of 75% to 92.5% RH, and the lighting condition may be 5000 Lux. The crystal stability may be evaluated by investigating several parameters, such as the content of the crystal, the total content of impurities, or the water content, of a sample, and comprehensively evaluating these parameters according to the properties of the product.
The crystal A obtained by Method 1 of Example 3 was kept away from light at room temperature, and sampled for detection in months 1.5, 2, 5, and 6, respectively.

[2] = Stability test of crystal B under high temperature, high humidity or illumination; format: physicochemical
Protocol: as §1
The crystal B obtained by Method 5 of Example 4 was kept respectively in an environment at a high temperature of 60° C., a high humidity of 75% RH, a high humidity of 92.5% RH, or an illumination intensity of 5000 Lux, and sampled for detection on days 5, 10, and 30, respectively.

With C=CC(=O)Nc1cc(Nc2nccc(-n3c(=O)n(C)c4ccccc43)n2)c(OC)cc1N(C)CCN(C)C [crystal A] the Characters ([1]; Initial Result) was “off-white”, the “Content (%)” value ([1]; Initial Result) was 100.3% and the “Total Impurity (%)” value ([1]; Initial Result) was 1.11%. The Characters ([1]; Month 1.5) was “off-white”, the “Content (%)” value ([1]; Month 1.5) was 100.5% and the “Total Impurity (%)” value ([1]; Month 1.5) was 1.52%. For the same compound, the Characters ([1]; Month 2) was “off-white”, the “Total Impurity (%)” value ([1]; Month 2) was 1.23% and the Characters ([1]; Month 5) was “off-white”. The “Content (%)” value ([1]; Month 5) was 100%, the “Total Impurity (%)” value ([1]; Month 5) was 1.5% and the Characters ([1]; Month 6) was “off-white”. For the same compound, the “Content (%)” value ([1]; Month 6) was 99.8% and the “Total Impurity (%)” value ([1]; Month 6) was 1.37%.

In the case of C=CC(=O)Nc1cc(Nc2nccc(-n3c(=O)n(C)c4ccccc43)n2)c(OC)cc1N(C)CCN(C)C [crystal B], the Characters ([2]; Day 0) is reported as “white”, the “Content (%)” value ([2]; Day 0) is reported as 99.3% and the “Total Impurity (%)” value ([2]; Day 0) is reported as 0.12%. For the same compound, the Characters ([2]; High Humidity 75% RH, Day 5) was “white”, the “Content (%)” value ([2]; High Humidity 75% RH, Day 5) was 99.3% and the Characters ([2]; High Humidity 75% RH, Day 10) was “white”. For the same compound, the “Content (%)” value ([2]; High Humidity 75% RH, Day 10) was 103.6%, the “Total Impurity (%)” value ([2]; High Humidity 75% RH, Day 10) was 0.07% and the Characters ([2]; High Humidity 75% RH, Day 30) was “off-white”. The “Content (%)” value ([2]; High Humidity 75% RH, Day 30) was 106.4%, the “Total Impurity (%)” value ([2]; High Humidity 75% RH, Day 30) was 0.06% and the Characters ([2]; High Humidity 92.5% RH, Day 5) was “white”. For the same compound, the “Content (%)” value ([2]; High Humidity 92.5% RH, Day 5) was 98.4%, the Characters ([2]; High Humidity 92.5% RH, Day 10) was “white” and the “Content (%)” value ([2]; High Humidity 92.5% RH, Day 10) was 105.2%. The “Total Impurity (%)” value ([2]; High Humidity 92.5% RH, Day 10) was 0.06%, the Characters ([2]; High Humidity 92.5% RH, Day 30) was “off-white” and the “Content (%)” value ([2]; High Humidity 92.5% RH, Day 30) was 103.9%. For the same compound, the “Total Impurity (%)” value ([2]; High Humidity 92.5% RH, Day 30) was 0.07%, the Characters ([2]; High Temp. 60° C., Day 5) was “white” and the “Content (%)” value ([2]; High Temp. 60° C., Day 5) was 100.5%. The Characters ([2]; High Temp. 60° C., Day 10) was “white”, the “Content (%)” value ([2]; High Temp. 60° C., Day 10) was 104.2% and the “Total Impurity (%)” value ([2]; High Temp. 60° C., Day 10) was 0.09%. For the same compound, the Characters ([2]; High Temp. 60° C., Day 30) was “off-white”, the “Content (%)” value ([2]; High Temp. 60° C., Day 30) was 107.9% and the “Total Impurity (%)” value ([2]; High Temp. 60° C., Day 30) was 0.19%. The Characters ([2]; Illumination 5000 Lux, Day 5) was “white”, the “Content (%)” value ([2]; Illumination 5000 Lux, Day 5) was 99.4% and the “Total Impurity (%)” value ([2]; Illumination 5000 Lux, Day 5) was 0.06%. For the same compound, the Characters ([2]; Illumination 5000 Lux, Day 10) was “white”, the “Content (%)” value ([2]; Illumination 5000 Lux, Day 10) was 106.9% and the “Total Impurity (%)” value ([2]; Illumination 5000 Lux, Day 10) was 0.14%. For the same compound, the Characters ([2]; Illumination 5000 Lux, Day 30) was “off-white”, the “Content (%)” value ([2]; Illumination 5000 Lux, Day 30) was 107.9% and the “Total Impurity (%)” value ([2]; Illumination 5000 Lux, Day 30) was 0.37%.
